Several values for one entry are separate records, joined by “and”; a condition that tells them apart may be missing. Identical values can stand only once. Like-named read-outs stand apart in the source and are kept apart here.
Biological target: fully phosphorylated, active Mouse ERK2 protein (Mus musculus (Mouse), UniProt P63085)
Test: Active ERK2 Assay (IMAP format)
Type: biochemical
Experimental: Activated ERK2 activity was also determined in the IMAP assay format using the procedure outlined above. […] Reactions proceeded for 30 minutes before termination by addition of 60 μl IMAP detection beads in binding buffer. Plates were read as above after 30 minute binding equilibration.

Sequence of fully phosphorylated, active Mouse ERK2 protein (P63085 whole entry): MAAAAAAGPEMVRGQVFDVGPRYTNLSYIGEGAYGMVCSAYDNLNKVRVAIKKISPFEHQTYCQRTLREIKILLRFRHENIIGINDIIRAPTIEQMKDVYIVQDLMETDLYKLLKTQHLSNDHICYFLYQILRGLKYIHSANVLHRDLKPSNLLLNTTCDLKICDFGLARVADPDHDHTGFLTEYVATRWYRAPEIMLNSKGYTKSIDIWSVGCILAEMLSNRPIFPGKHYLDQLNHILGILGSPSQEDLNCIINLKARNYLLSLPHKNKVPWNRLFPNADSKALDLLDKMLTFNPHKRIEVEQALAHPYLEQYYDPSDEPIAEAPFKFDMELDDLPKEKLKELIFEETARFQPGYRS

| SMILES | IC50 (read-out: AERK2 IC50) | IC50 (AERK2 IC50) |
| --- | --- | --- |
| O=C(Nc1ccc2[nH]nc(-c3ccc(F)cc3)c2c1)[C@@H]1CCN(CC(=O)N2CCN(c3ccc(-c4ncccn4)cc3)CC2)C1 (stereo in doubt) [Example 1, 1-{2-Oxo-2-[4-(4-pyrimidin-2-yl-phenyl)-piperazin-1-yl]-ethyl}-pyrrolidine-3-carboxylic acid [3-(4-fluoro-phenyl)-1H-indazol-5-yl]-amide] | 160 to 18000 pM |  |
| O=C(Nc1ccc2[nH]nc(-c3c[nH]cn3)c2c1)[C@@H]1CCN(CC(=O)N2CCN(c3ccc(-c4ncccn4)cc3)CC2)C1 (stereo in doubt) [Example 61, 1-{2-Oxo-2-[4-(4-pyrimidin-2-yl-phenyl)-piperazin-1-yl]-ethyl}-pyrrolidine-3-carboxylic acid [3-(1H-imidazol-4-yl)-1H-indazol-5-yl]-amide] | 160 to 18000 pM |  |
| N#Cc1cccc(-c2n[nH]c3ccc(NC(=O)[C@@H]4CCN(CC(=O)N5CCN(c6ccc(-c7ncccn7)cc6)CC5)C4)cc23)c1 [Example 2, 1-{2-Oxo-2-[4-(4-pyrimidin-2-yl-phenyl)-piperazin-1-yl]-ethyl}-pyrrolidine-3-carboxylic acid[3-(3-cyano-phenyl)-1H-indazol-5-yl]-amide] | 160 to 18000 pM |  |
| O=C(Nc1ccc2[nH]nc(-c3ccncc3)c2c1)[C@@H]1CCN(CC(=O)N2CCN(c3ccc(-c4ncccn4)cc3)CC2)C1 [Example 6] |  | 800 pM |
| CCCCNC(=O)c1n[nH]c2ccc(NC(=O)[C@@H]3CCN(CC(=O)N4CCN(c5ccc(-c6ncccn6)cc5)CC4)C3)cc12 [Example 86] | 160 to 18000 pM |  |
| O=C(Nc1ccc2[nH]nc(-c3ccc(F)cc3)c2c1)C1CCN(CC(=O)N2CCN(c3ccc(-c4ncccn4)cn3)CC2)C1 (stereo not shown) [Example 98] | 160 to 18000 pM |  |
| C[C@@H]1CN(c2ccc(-c3ncccn3)cn2)CCN1C(=O)CN1CCC(C(=O)Nc2ccc3[nH]nc(-c4ccc(F)cc4)c3c2)C1 (stereo partly shown) [Example 100] | 160 to 18000 pM and 160 to 1500 pM |  |
| Cc1cnc(-c2ccc(N3CCN(C(=O)CN4CCC(C(=O)Nc5ccc6[nH]nc(-c7ccc(F)cc7)c6c5)C4)[C@H](C)C3)cc2)nc1 (stereo partly shown) [Example 120] | 160 to 18000 pM |  |
| COCC1(C(=O)Nc2ccc3[nH]nc(-c4ccc(F)cc4)c3c2)CCN(CC(=O)N2CCN(c3ccc(-c4ncccn4)cc3)CC2)C1 (stereo not shown) [Example 125, 3-methoxymethyl-1-{2-oxo-2-[4-(4-pyrimidin-2-yl-phenyl)-piperazin-1-yl]-ethyl}-pyrrolidine-3-carboxylic acid [3-(4-fluoro-phenyl)-1H-indazol-5-yl]-amide] | 160 to 18000 pM |  |
| CC(C)(C)OC(=O)N1CCC(O)(c2nccs2)CC1 [Example 132, 4-Hydroxy-4-thiazol-2-yl-piperidine-1-carboxylic acid tert-butyl ester] | 160 to 18000 pM |  |
| CNC(=O)c1n[nH]c2ccc(NC(=O)[C@@H]3CCN(CC(=O)N4C[C@@H]5C[C@H]4CN5c4ccc(-c5ncccn5)cc4)C3)cc12 [Example 152] | 160 to 18000 pM |  |
| CNC(=O)c1n[nH]c2ccc(NC(=O)[C@@H]3CCN(CC(=O)N4CC=C(c5nccs5)CC4)C3)cc12 [Example 168] | 160 to 18000 pM |  |
| CNC(=O)c1n[nH]c2ccc(NC(=O)[C@@H]3CCN(CC(=O)N4CCC(c5ccc(-c6ncccn6)cc5)CC4)C3)cc12 [Example 176] | 160 to 18000 pM |  |
| O=C(Nc1ccc2[nH]nc(-c3ccncc3)c2c1)[C@@H]1CCN(CC(=O)N2C[C@@H]3C[C@H]2CN3c2ccc(-c3ncc(F)cn3)cc2)C1 [Example 183] | 160 to 18000 pM and 160 to 1500 pM and 160 pM |  |
| O=C(CN1CCC(CF)(C(=O)Nc2ccc3[nH]nc(-c4ccc(F)cc4)c3c2)C1)N1C[C@@H]2C[C@H]1CN2c1ccc(-c2ncccn2)cc1 (stereo partly shown) [Example 251] | 160 to 18000 pM |  |
| COCC1(C(=O)Nc2ccc3[nH]nc(-c4ccncc4)c3c2)CCN(CC(=O)N2CCN(c3ccc(-c4ncccn4)cc3)CC2)C1 (stereo not shown) [Example 264] | 160 to 18000 pM |  |

| SMILES | IC50 (read-out: AERK2 IC50) | IC50 (AERK2 IC50) |
| --- | --- | --- |
| O=C(CN1CCC(CF)(C(=O)Nc2ccc3[nH]nc(-c4ccncc4)c3c2)C1)N1C[C@@H]2C[C@H]1CN2c1ccc(-c2ncccn2)cc1 (stereo partly shown) [Example 269] | 160 to 18000 pM |  |
| C=CCC1(C(=O)Nc2ccc3[nH]nc(-c4ccncc4)c3c2)CCN(CC(=O)N2C[C@@H]3C[C@H]2CN3c2ccc(-c3ncc(F)cn3)cc2)C1 (stereo partly shown) [Example 271] | 160 to 18000 pM |  |
| O=C(CN1CCC(CN2CCOCC2)(C(=O)Nc2ccc3[nH]nc(-c4ccncc4)c3c2)C1)N1CCN(c2nccs2)CC1 (stereo not shown) [Example 286] | 160 to 18000 pM |  |
| CCCC1(C(=O)Nc2ccc3[nH]nc(-c4ccncc4)c3c2)CCN(CC(=O)N2CCN(c3ccc(-c4ncccn4)cc3)CC2)C1 (stereo not shown) [Example 290] | 160 to 18000 pM |  |
| C#CCC1(C(=O)Nc2ccc3[nH]nc(-c4ccncc4)c3c2)CCN(CC(=O)N2CCN(c3ccc(-c4ncccn4)cc3)CC2)C1 (stereo not shown) [Example 292] | 160 to 18000 pM |  |
| C=CCC1(C(=O)Nc2ccc3[nH]nc(-c4ccncc4)c3c2)CCN(CC(=O)N2CCN(c3ccc(-c4ncc(F)cn4)cc3)CC2)C1 (stereo not shown) [Example 294] | 160 to 18000 pM |  |
| COCC1(C(=O)Nc2ccc3[nH]nc(-c4ccncc4)c3c2)CCN(CC(=O)N2C[C@@H]3C[C@H]2CN3c2ccc(-c3ncc(F)cn3)cc2)C1 (stereo partly shown) [Example 303] | 160 to 18000 pM |  |
| COCC1(C(=O)Nc2ccc3[nH]nc(-c4ccncc4)c3c2)CCN(CC(=O)N2CCN(c3ccc(-c4ncccn4)cn3)C[C@H]2C)C1 (stereo partly shown) [Example 304] | 160 to 18000 pM |  |
| O=C(Nc1ccc2[nH]nc(-c3ccncc3)c2c1)[C@@H]1CCN(CC(=O)N2CCc3ncccc3C2)C1 [Example 333] | 160 to 18000 pM |  |
| CSC1(C(=O)Nc2ccc3[nH]nc(-c4ccc(F)cc4)c3c2)CCN(CC(=O)N2CCN(c3ccc(-c4ncccn4)cc3)CC2)C1 (stereo not shown) [Example 338] | 160 to 18000 pM |  |
| CCOC1(C(=O)Nc2ccc3[nH]nc(-c4ccnc(C)c4)c3c2)CCN(CC(=O)N2CCN(c3ccc(-c4ncccn4)cc3)CC2)C1 (stereo not shown) [Example 343] | 160 to 18000 pM |  |
| CO[C@@]1(C(=O)Nc2ccc3[nH]nc(-c4ccc(F)cc4)c3c2)CCN(CC(=O)N2CC=C(c3ccc(-c4ncccn4)cc3F)CC2)C1 [Example 606] | 160 to 18000 pM |  |
| CON(C(=O)[C@@H]1CCN(CC(=O)N2CC=C(c3ccc(-c4ncccn4)cc3)CC2)C1)c1ccc2[nH]nc(-c3ccncc3)c2c1 [Example 611] | 160 to 18000 pM |  |
| CS(=O)(=O)[C@@]1(C(=O)Nc2ccc3[nH]nc(-c4ccnc(C5CC5)c4)c3c2)CCN(CC(=O)N2CC=C(c3ccc(-c4ncccn4)cc3)CC2)C1 [Example 634] | 160 to 18000 pM |  |
| CS(=O)(=O)[C@@]1(C(=O)Nc2ccc3[nH]nc(-c4ccnc(C5CC5)c4)c3c2)CCN(CC(=O)N2CCC(c3ccc(-c4ncccn4)cc3)CC2)C1 [Example 635] | 160 to 18000 pM |  |
| CS[C@@]1(C(=O)Nc2ccc3[nH]nc(-c4ccnc(C5CC5)c4)c3c2)CCN(CC(=O)N2CC=C(c3ccc(-c4ncccn4)cc3)CC2)C1 [Example 639] | 160 to 18000 pM |  |

More lines, main results first:

| IC50 (read-out: AERK2 IC50) | SMILES | IC50 (AERK2 IC50) |
| --- | --- | --- |
| 160 to 18000 pM | CC(=O)N/N=C(\C)C1(C(=O)Nc2ccc3[nH]nc(-c4ccc(F)cc4)c3c2)CCN(CC(=O)N2CCN(c3ccc(-c4ncccn4)cn3)C[C@H]2C)C1 (stereo in doubt) [Example 358, 3-[1-(Acetyl-hydrazono)-ethyl]-1-{2-[2-methyl-4-(5-pyrimidin-2-yl-pyridin-2-yl)-piperazin-1-yl]-2-oxo-ethyl}-pyrrolidine-3-carboxylic acid [3-(4-fluoro-phenyl)-1H-indazol-5-yl]-amide] |  |
| 160 to 18000 pM | Cc1cnc(-c2ccc(N3CCN(C(=O)CN4CCC(NC=O)(C(=O)Nc5ccc6[nH]nc(-c7ccc(F)cc7)c6c5)C4)[C@H](C)C3)cc2)nc1 (stereo in doubt) [Example 362, 3-Formylamino-1-(2-{2-methyl-4-[4-(5-methyl-pyrimidin-2-yl)-phenyl]-piperazin-1-yl}-2-oxo-ethyl)-pyrrolidine-3-carboxylic acid [3-(4-fluoro-phenyl)-1H-indazol-5-yl]-amide] |  |
| 160 to 18000 pM | CCNc1nnc(-c2ccc(C3CCN(C(=O)CN4CC[C@@](OC)(C(=O)Nc5ccc6[nH]nc(-c7ccc(F)cc7)c6c5)C4)CC3)cc2)o1 (stereo in doubt) [Example 623, 1-(2-{4-[4-(5-Ethylamino-[1,3,4]oxadiazol-2-yl)-phenyl]-piperidin-1-yl}-2-oxo-ethyl)-3-methoxy-pyrrolidine-3-carboxylic acid [3-(4-fluoro-phenyl)-1H-indazol-5-yl]-amide] |  |
| 160 to 18000 pM | CNC(=O)c1n[nH]c2ccc(NC(=O)C3CCN(CC(=O)N4CCC(C#Cc5ncccn5)CC4)C3)cc12 (stereo not shown) [Example 142, 5-({1-[2-oxo-2-(4-pyrimidin-2-ylethynyl-piperidin-1-yl)-ethyl]-pyrrolidine-3-carbonyl}-amino)-1H-indazole-3-carboxylic acid methylamide] |  |
| 160 to 18000 pM | CNC(=O)c1n[nH]c2ccc(NC(=O)[C@@H]3CCN(CC(=O)N4C[C@@H]5C[C@H]4CN5c4ccc(-c5ncc(C)cn5)cc4)C3)cc12 [Example 154] |  |
| 160 to 18000 pM and 160 to 1500 pM | O=C(Nc1ccc2[nH]nc(-c3ccc(F)cc3)c2c1)[C@@H]1CCN(CC(=O)N2C[C@@H]3C[C@H]2CN3c2ccc(-c3ncccn3)cc2)C1 [Example 184] |  |
| 160 to 18000 pM and 160 to 1500 pM and 780 pM | O=C(Nc1ccc2[nH]nc(-c3ccncc3)c2c1)[C@@H]1CCN(CC(=O)N2CCN(c3ccc(-c4ncc(F)cn4)cc3)CC2)C1 [Example 186] |  |
| 160 to 18000 pM | C=Cc1cnc(N2C[C@@H]3C[C@H]2CN3C(=O)CN2CC[C@@H](C(=O)Nc3ccc4[nH]nc(-c5ccncc5)c4c3)C2)nc1 [Example 250] |  |
| 160 to 18000 pM and 160 to 1500 pM | C=CCC1(C(=O)Nc2ccc3[nH]nc(-c4ccncc4)c3c2)CCN(CC(=O)N2CCN(c3ccc(-c4cnccn4)cc3)CC2)C1 (stereo not shown) [Example 261] |  |
| 160 to 18000 pM | O=C(CN1CCC(CF)(C(=O)Nc2ccc3[nH]nc(-c4ccncc4)c3c2)C1)N1CCN(c2nccs2)CC1 (stereo not shown) [Example 282] |  |
| 160 to 18000 pM | C=CCC1(C(=O)Nc2ccc3[nH]nc(-c4ccncc4)c3c2)CCN(CC(=O)N2CCN(c3ccc(-c4ncccn4)cc3)CC2)C1 (stereo not shown) [Example 289] |  |
| 160 to 18000 pM | COCC1(C(=O)Nc2ccc3[nH]nc(-c4ccncc4)c3c2)CCN(CC(=O)N2CCN(c3ccc(-c4ncc(F)cn4)cc3)CC2)C1 (stereo not shown) [Example 302] |  |
| 160 to 18000 pM | COCC1(C(=O)Nc2ccc3[nH]nc(-c4ccncc4)c3c2)CCN(CC(=O)N2CC=C(c3nccs3)CC2)C1 (stereo not shown) [Example 306] |  |
| 160 to 18000 pM | O=C(Nc1ccc2[nH]nc(-c3ccncc3)c2c1)[C@@H]1CCN(CC(=O)N2CCc3ccccc3C2)C1 [Example 332] |  |

Reference: patent US8546404B2, “Compounds that are ERK inhibitors” (Merck Sharp & Dohme, priority 2005, dated 2013)
